Measured values as given in ChEMBL document CHEMBL5226393, “Semisynthesis of 22,25-Epoxylanostane Triterpenoids: Structure Revision and Protective Effects against Oxygen-Glucose Deprivation/Reoxygenation Injury in H9c2 Cells” (2023).
The source made the active and inactive calls. The rule behind the calls is not given here.

Legend:
H9c2 [1] = test: Cardioprotective activity against OGD/R-induced cell injury in rat H9c2 cells assessed as increase in cell viability at 20 uM subjected to OGD condition for 6 hrs followed by compound treatment and measured after 6 hrs by MTT assay relative to control; format: functional
H9c2 [2] = test: Cardioprotective activity against OGD/R-induced cell injury in rat H9c2 cells assessed as increase in cell viability at 5 uM subjected to OGD condition for 6 hrs followed by compound treatment and measured after 6 hrs by MTT assay relative to control; format: functional
H9c2 [3] = test: Cardioprotective activity against OGD/R-induced cell injury in rat H9c2 cells assessed as increase in cell viability at 20 uM subjected to OGD condition for 6 hrs followed by compound treatment and measured after 6 hrs by MTT assay; format: functional, cell-based
H9c2 [4] = test: Induction of apoptosis in OGD/R-induced rat H9c2 cells assessed as viable cells at 10 uM preincubated with compound followed by treatment under OGD condition by Annexin V-FITC staining based flow cytometric analysis (reference value: 93.9%); format: functional; conditions: read-out: Activity
H9c2 [5] = test: Induction of apoptosis in OGD/R-induced rat H9c2 cells assessed as necrotic cells at 5 uM preincubated with compound followed by treatment under OGD condition by Annexin V-FITC staining based flow cytometric analysis (reference value: 1.01%); format: functional
H9c2 [6] = test: Induction of apoptosis in OGD/R-induced rat H9c2 cells assessed as early apoptotic cells at 10 uM preincubated with compound followed by treatment under OGD condition by Annexin V-FITC staining based flow cytometric analysis (reference value: 0.97%); format: functional
H9c2 [7] = test: Induction of apoptosis in OGD/R-induced rat H9c2 cells assessed as total apoptotic cells at 5 uM preincubated with compound for 24 hrs followed by treatment under OGD condition by Annexin V-FITC staining based flow cytometric analysis relative to control; format: functional
H9c2 [8] = test: Induction of apoptosis in OGD/R-induced rat H9c2 cells assessed as necrotic cells at 10 uM preincubated with compound followed by treatment under OGD condition by Annexin V-FITC staining based flow cytometric analysis (reference value: 1.01%); format: functional
H9c2 [9] = test: Induction of apoptosis in OGD/R-induced rat H9c2 cells assessed as late apoptotic cells at 5 uM preincubated with compound followed by treatment under OGD condition by Annexin V-FITC staining based flow cytometric analysis (reference value: 4.14%); format: functional
H9c2 [10] = test: Induction of mitochondrial membrane potential loss in OGD/R-induced rat H9c2 cells assessed as increase in red to green fluorescence ratio by JC-1 staining based microscopic analysis relative to control; format: functional
H9c2 [11] = test: Induction of apoptosis in OGD/R-induced rat H9c2 cells assessed as total apoptotic cells at 10 uM preincubated with compound for 24 hrs followed by treatment under OGD condition by Annexin V-FITC staining based flow cytometric analysis relative to control; format: functional
H9c2 [12] = test: Induction of apoptosis in OGD/R-induced rat H9c2 cells assessed as late apoptotic cells at 10 uM preincubated with compound followed by treatment under OGD condition by Annexin V-FITC staining based flow cytometric analysis (reference value: 4.14%); format: functional
H9c2 [13] = test: Induction of apoptosis in OGD/R-induced rat H9c2 cells assessed as viable cells at 5 uM preincubated with compound followed by treatment under OGD condition by Annexin V-FITC staining based flow cytometric analysis (reference value: 93.9%); format: functional; conditions: read-out: Activity
H9c2 [14] = test: Induction of apoptosis in OGD/R-induced rat H9c2 cells assessed as early apoptotic cells at 5 uM preincubated with compound followed by treatment under OGD condition by Annexin V-FITC staining based flow cytometric analysis (reference value: 0.97%); format: functional
H9c2 [15] = test: Induction of apoptosis in OGD/R-induced rat H9c2 cells assessed as total apoptotic cells at 100 uM preincubated with compound for 24 hrs followed by treatment under OGD condition by Annexin V-FITC staining based flow cytometric analysis relative to control; format: functional
H9c2 [16] = test: Cardioprotective activity against OGD/R-induced cell injury in rat H9c2 cells assessed as increase in cell viability at 100 uM subjected to OGD condition for 6 hrs followed by compound treatment and measured after 6 hrs by MTT assay relative to control; format: functional
H9c2 [17] = test: Induction of apoptosis in OGD/R-induced rat H9c2 cells assessed as necrotic cells at 100 uM preincubated with compound followed by treatment under OGD condition by Annexin V-FITC staining based flow cytometric analysis (reference value: 1.01%); format: functional
H9c2 [18] = test: Induction of apoptosis in OGD/R-induced rat H9c2 cells assessed as late apoptotic cells at 100 uM preincubated with compound followed by treatment under OGD condition by Annexin V-FITC staining based flow cytometric analysis (reference value: 4.14%); format: functional
H9c2 [19] = test: Induction of apoptosis in OGD/R-induced rat H9c2 cells assessed as early apoptotic cells at 100 uM preincubated with compound followed by treatment under OGD condition by Annexin V-FITC staining based flow cytometric analysis (reference value: 0.97%); format: functional
H9c2 [20] = test: Induction of apoptosis in OGD/R-induced rat H9c2 cells assessed as viable cells at 100 uM preincubated with compound followed by treatment under OGD condition by Annexin V-FITC staining based flow cytometric analysis (reference value: 93.9%); format: functional; conditions: read-out: Activity

For `C[C@H]([C@@H]1CCC(C)(C)O1)[C@H]1CC[C@@]2(C)C3=CC[C@H]4C(C)(C)[C@@H](O)CC[C@]4(C)C3=CC[C@]12C`, the Activity (H9c2 [1]) was 10.6%.
`C[C@@H]([C@H]1CC[C@@]2(C)C3=CC[C@H]4C(C)(C)[C@@H](O)CC[C@]4(C)C3=CC[C@]12C)[C@H]1CCC(C)(C)O1` gave an Activity (H9c2 [1]) of 11.4%.
For `C=C(C)[C@@H]1CC=C2C(=CC[C@]3(C)[C@@H]([C@H](C)[C@H]4CCC(C)(C)O4)CC[C@@]23C)[C@@]1(C)CCC(=O)O`, the Activity (H9c2 [2]) was 6.4% and the Activity (H9c2 [1]) was 17.7%.
With `C[C@H]([C@@H]1C[C@H](O)C(C)(C)O1)[C@H]1CC[C@@]2(C)C3=CC[C@H]4C(C)(C)[C@@H](O)CC[C@]4(C)C3=CC[C@]12C` the Activity (H9c2 [3]) was “inactive”.
`C[C@@H]([C@H]1CC[C@@]2(C)C3=C(CC[C@]12C)[C@@]1(C)CC[C@H](O)C(C)(C)[C@@H]1CC3)[C@H]1C[C@@H](O)C(C)(C)O1` was tested, and the Activity (H9c2 [3]) was “inactive”.
For `C[C@H]([C@@H]1C[C@@H](O)C(C)(C)O1)[C@H]1CC[C@@]2(C)C3=CC[C@H]4C(C)(C)[C@@H](O)CC[C@]4(C)C3=CC[C@]12C`, the Activity (H9c2 [3]) was “inactive”.
With `C[C@@H]([C@H]1CC[C@@]2(C)C3=C(CC[C@]12C)[C@@]1(C)CC[C@H](O)C(C)(C)[C@@H]1CC3)[C@H]1CCC(C)(C)O1` the viability at 10 µM (H9c2 [4]) was 85.9%, the Activity (H9c2 [5]) was 0.52% and the Activity (H9c2 [6]) was 5.12%. It also gave an Activity (H9c2 [7]) of 17.4%, an Activity (H9c2 [8]) of 0.035% and an Activity (H9c2 [2]) of 11.4%. It also gave an Activity (H9c2 [9]) of 13.3%, an Activity (H9c2 [10]) of 90% and an Activity (H9c2 [11]) of 14.5%. The Activity (H9c2 [12]) was 8.97%, the Activity (H9c2 [1]) was 18.7% and the viability at 5 µM (H9c2 [13]) was 83.7%. For the same molecule, the Activity (H9c2 [14]) was 2.55%.
`C[C@H]([C@@H]1CCC(C)(C)O1)[C@H]1CC[C@@]2(C)C3=C(CC[C@]12C)[C@@]1(C)CC[C@H](O)C(C)(C)[C@@H]1CC3` showed an Activity (H9c2 [1]) of 10.8%.
For `C[C@H]([C@@H]1C[C@H](O)C(C)(C)O1)[C@H]1CC[C@@]2(C)C3=C(CC[C@]12C)[C@@]1(C)CC[C@H](O)C(C)(C)[C@@H]1CC3`, the Activity (H9c2 [3]) was “inactive”.
`C[C@H]([C@@H]1C[C@@H](O)C(C)(C)O1)[C@H]1CC[C@@]2(C)C3=C(CC[C@]12C)[C@@]1(C)CC[C@H](O)C(C)(C)[C@@H]1CC3` was tested, and the Activity (H9c2 [3]) was “inactive”.
`C[C@@H]([C@H]1CC[C@@]2(C)C3=CC[C@H]4C(C)(C)[C@@H](O)CC[C@]4(C)C3=CC[C@]12C)[C@H]1C[C@@H](O)C(C)(C)O1` was tested, and the Activity (H9c2 [3]) was “inactive”.
With `C[C@@H]([C@H]1CC[C@@]2(C)C3=CC[C@H]4C(C)(C)[C@@H](O)CC[C@]4(C)C3=CC[C@]12C)[C@H]1C[C@H](O)C(C)(C)O1` the Activity (H9c2 [3]) was “inactive”.
`CC1=Nc2ccc(Cl)cc2S(=O)(=O)N1` [DIAZOXIDE] gave an Activity (H9c2 [15]) of 17.3%, an Activity (H9c2 [16]) of 14.9% and an Activity (H9c2 [17]) of 0.58%. It also gave an Activity (H9c2 [18]) of 12.7%, an Activity (H9c2 [19]) of 5.41% and a viability at 100 µM (H9c2 [20]) of 81.3%.
For `C[C@@H]([C@H]1CC[C@@]2(C)C3=C(CC[C@]12C)[C@@]1(C)CC[C@H](O)C(C)(C)[C@@H]1CC3)[C@H]1C[C@H](O)C(C)(C)O1`, the Activity (H9c2 [3]) was “inactive”.
